Reference: patent publication US6737383B1, “Herbicidal oxadiazolidines” (priority 1999, dated 2004)

What was measured:
crabgrass = test: Test B pre/postemergence crabgrass; type: in vivo, Digitaria sanguinalis
Outline: (§1)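 Response is a visual 0-to-10 score relative to untreated plants, where 0 means no effect and 10 means complete control, taken twelve to sixteen days after application. Treatments went onto soil at planting and onto foliage of 1- to 4-leaf plants, using a surfactant-containing non-phytotoxic solvent.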

morningglory = test: Test B pre/postemergence morningglory; type: in vivo, Ipomoea hederacea
Outline: as §1

rice = test: Test B flood test rice; type: in vivo, Oryza sativa
Outline: (§2)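 Plants were grown to the 2-leaf stage before treatment with test chemical, then held in a greenhouse for twelve to sixteen days. Injury was visually rated against untreated controls on a 0–10 scale, where 0 is no effect and 10 is complete control.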

bedstraw = test: Test B pre/postemergence bedstraw; type: in vivo, Galium aparine
Outline: as §1

cocklebur = test: Test B pre/postemergence cocklebur; type: in vivo, Xanthium strumarium
Outline: as §1

bamyardgrass = test: Test B flood test barnyardgrass; type: in vivo, Echinochloa crus-galli
Outline: as §2

blackgrass = test: Test B pre/postemergence blackgrass; type: in vivo, Alopecurus myosuroides
Outline: as §1

wheat = test: Test B pre/postemergence wheat; type: in vivo, Triticum aestivum
Outline: as §1

wild oat = test: Test B pre/postemergence wild oat; type: in vivo, Avena fatua
Outline: as §1

purple nutsedge = test: Test B pre/postemergence purple nutsedge; type: in vivo, Cyperus rotundus
Outline: as §1

surinam grass = test: Test B pre/postemergence surinam grass; type: in vivo, Brachiaria decumbens
Outline: as §1

pigweed = test: Test B pre/postemergence pigweed; type: in vivo, Amaranthus retroflexus
Outline: as §1

sugar beet = test: Test B pre/postemergence sugar beet; type: in vivo, Beta vulgaris
Outline: as §1

giant foxtail = test: Test B pre/postemergence giant foxtail; type: in vivo, Setaria faberii
Outline: as §1

rape = test: Test B pre/postemergence rape; type: in vivo, Brassica napus
Outline: as §1

corn = test: Test B pre/postemergence corn; type: in vivo, Zea mays
Outline: as §1

[1] = Postemergence, Rate 62 g/ha, scale 0 to 10, 0 is no effect, 10 is complete control
[2] = Postemergence, Rate 125 g/ha, scale of 0 to 10 where 0 is no effect and 10 is complete control
[3] = Postemergence, Rate 250 g/ha, scale of 0 to 10, 0 is no effect, 10 is complete control
[4] = Preemergence, Rate 62 g/ha, scale 0 to 10 (0 no effect, 10 complete control)
[5] = Preemergence, Rate 125 g/ha, scale of 0 to 10 where 0 is no effect and 10 is complete control
[6] = Preemergence, Rate 250 g/ha, scale 0 to 10 (0 no effect, 10 complete control)
[7] = Preemergence, Rate 500 g/ha, scale of 0 to 10 where 0 is no effect and 10 is complete control
[8] = Postemergence, Rate 500 g/ha, scale of 0 to 10 where 0 is no effect and 10 is complete control
[9] = Rate 62 g/ha, flood test species, Pre-emergence, visual evaluation after twelve to sixteen days
[10] = Rate 125 g/ha, under heading Pre-emergence, flood test species, visual evaluation after twelve to sixteen days
[11] = Rate 250 g/ha, Pre-emergence (flood test species), scale 0 to 10, 0 is no effect, 10 is complete control
[12] = Rate 500 g/ha, Pre-emergence section of Table B, 0 to 10 scale (0 no effect, 10 complete control)

## CCOC(=O)CC(C(=O)OCC)n1c(=O)on(C(=O)N(c2ccc(F)cc2)C(C)C)c1=O (centres unmarked) [Compound 615]
crabgrass; [1]
  Plant response rating, Crabgrass: 0
crabgrass; [2]
  Plant response rating, Crabgrass: 0
crabgrass; [3]
  Crabgrass plant response rating: 4
crabgrass; [4]
  Crabgrass plant response rating: 0
crabgrass; [5]
  Crabgrass plant response rating: 0
crabgrass; [6]
  Plant response rating, Crabgrass: 0
crabgrass; [7]
  Plant response rating, Crabgrass: 0
morningglory; [1]
  Plant response rating, Morningglory: 0
morningglory; [2]
  Plant response rating, Morningglory: 1
morningglory; [3]
  Morningglory plant response rating: 1
morningglory; [8]
  Plant response rating, Morningglory: 1
morningglory; [4]
  Morningglory plant response rating: 0
morningglory; [5]
  Morningglory plant response rating: 0
morningglory; [6]
  Plant response rating, Morningglory: 0
morningglory; [7]
  Plant response rating, Morningglory: 0
rice; [9]
  Plant response rating, Rice (0 to 10 scale, 0 is no effect, 10 is complete control): 0
rice; [10]
  Rice plant response rating (0 to 10 scale, 0 is no effect, 10 is complete control): 0
rice; [11]
  Rice plant response rating: 0
rice; [12]
  Rice plant response rating: 0
bedstraw; [1]
  Plant response rating, Bedstraw: 0
bedstraw; [2]
  Plant response rating, Bedstraw: 0
bedstraw; [4]
  Bedstraw plant response rating: 0
bedstraw; [5]
  Bedstraw plant response rating: 0
bedstraw; [6]
  Plant response rating, Bedstraw: 0
bedstraw; [7]
  Bedstraw plant response rating: 0
cocklebur; [1]
  Plant response rating, Cocklebur: 0
cocklebur; [2]
  Plant response rating, Cocklebur: 0
cocklebur; [3]
  Cocklebur plant response rating: 0
cocklebur; [8]
  Plant response rating, Cocklebur: 0
cocklebur; [4]
  Cocklebur plant response rating: 0
cocklebur; [5]
  Cocklebur plant response rating: 0
cocklebur; [6]
  Plant response rating, Cocklebur: 0
cocklebur; [7]
  Plant response rating, Cocklebur: 0
bamyardgrass; [9]
  Plant response rating, Barnyardgrass (0 to 10 scale, 0 is no effect, 10 is complete control): 0
bamyardgrass; [10]
  Barnyardgrass plant response rating (0 to 10 scale, 0 is no effect, 10 is complete control): 0
bamyardgrass; [11]
  Barnyardgrass plant response rating: 0
bamyardgrass; [12]
  Barnyardgrass plant response rating: 0
blackgrass; [1]
  Plant response rating, Blackgrass: 0
blackgrass; [2]
  Plant response rating, Blackgrass: 0
blackgrass; [3]
  Blackgrass plant response rating: 0
blackgrass; [8]
  Plant response rating, Blackgrass: 0
blackgrass; [4]
  Blackgrass plant response rating: 0
blackgrass; [5]
  Blackgrass plant response rating: 0
blackgrass; [6]
  Plant response rating, Blackgrass: 0
blackgrass; [7]
  Blackgrass plant response rating: 4
wheat; [1]
  Plant response rating, Wheat: 0
wheat; [2]
  Plant response rating, Wheat: 0
wheat; [3]
  Wheat plant response rating: 0
wheat; [8]
  Plant response rating, Wheat: 0
wheat; [4]
  Wheat plant response rating: 0
wheat; [5]
  Wheat plant response rating: 0
wheat; [6]
  Plant response rating, Wheat: 0
wheat; [7]
  Plant response rating, Wheat: 0
Wild oat; [1]
  Plant response rating, Wild oats: 0
Wild oat; [2]
  Plant response rating, Wild oats: 0
Wild oat; [3]
  Wild oats plant response rating: 0
Wild oat; [8]
  Plant response rating, Wild oats: 0
Wild oat; [4]
  Wild oats plant response rating: 0
Wild oat; [5]
  Wild oats plant response rating: 0
Wild oat; [6]
  Plant response rating, Wild oats: 0
Wild oat; [7]
  Plant response rating, Wild oats: 0
Purple nutsedge; [1]
  Plant response rating, Nutsedge: 0
Purple nutsedge; [2]
  Plant response rating, Nutsedge: 0
Purple nutsedge; [3]
  Nutsedge plant response rating: 0
Purple nutsedge; [4]
  Nutsedge plant response rating: 0
Purple nutsedge; [5]
  Nutsedge plant response rating: 0
Purple nutsedge; [6]
  Plant response rating, Nutsedge: 0
Purple nutsedge; [7]
  Plant response rating, Nutsedge: 0
Surinam grass; [1]
  Plant response rating, B. signalgrass: 0
Surinam grass; [2]
  Plant response rating, B. signalgrass: 0
Surinam grass; [3]
  B. signalgrass plant response rating: 0
Surinam grass; [8]
  Plant response rating, B. signalgrass: 0
Surinam grass; [4]
  B. signalgrass plant response rating: 0
Surinam grass; [5]
  B. signalgrass plant response rating: 0
Surinam grass; [6]
  Plant response rating, B. signalgrass: 0
Surinam grass; [7]
  B. signalgrass plant response rating: 0
pigweed; [1]
  Plant response rating, Redroot pigweed: 0
pigweed; [2]
  Plant response rating, Redroot pigweed: 0
pigweed; [3]
  Redroot pigweed plant response rating: 0
pigweed; [8]
  Plant response rating, Redroot pigweed: 0
pigweed; [4]
  Redroot pigweed plant response rating: 0
pigweed; [5]
  Redroot pigweed plant response rating: 0
pigweed; [6]
  Plant response rating, Redroot pigweed: 0
pigweed; [7]
  Plant response rating, Redroot pigweed: 4
Sugar beet; [1]
  Plant response rating, Sugarbeets: 0
Sugar beet; [2]
  Plant response rating, Sugarbeets: 0
Sugar beet; [3]
  Sugarbeets plant response rating: 0
Sugar beet; [8]
  Plant response rating, Sugarbeets: 0
Sugar beet; [4]
  Sugarbeets plant response rating: 0
Sugar beet; [5]
  Sugarbeets plant response rating: 0
Sugar beet; [6]
  Plant response rating, Sugarbeets: 0
Sugar beet; [7]
  Plant response rating, Sugarbeets: 6
Giant foxtail; [1]
  Plant response rating, Giant foxtail: 0
Giant foxtail; [2]
  Plant response rating, Giant foxtail: 0
Giant foxtail; [3]
  Giant foxtail plant response rating: 6
Giant foxtail; [8]
  Plant response rating, Giant foxtail: 6
Giant foxtail; [4]
  Giant foxtail plant response rating: 0
Giant foxtail; [5]
  Giant foxtail plant response rating: 0
Giant foxtail; [6]
  Plant response rating, Giant foxtail: 0
Giant foxtail; [7]
  Plant response rating, Giant foxtail: 7
rape; [1]
  Plant response rating, Rape: 0
rape; [2]
  Plant response rating, Rape: 0
rape; [3]
  Rape plant response rating: 0
rape; [8]
  Plant response rating, Rape: 0
rape; [4]
  Rape plant response rating: 0
rape; [5]
  Rape plant response rating: 0
rape; [6]
  Plant response rating, Rape: 0
rape; [7]
  Plant response rating, Rape: 0
corn; [1]
  Plant response rating, Corn: 0
corn; [2]
  Plant response rating, Corn: 0
corn; [3]
  Corn plant response rating: 0
corn; [8]
  Plant response rating, Corn: 0
corn; [4]
  Corn plant response rating: 0
corn; [5]
  Corn plant response rating: 0
corn; [6]
  Plant response rating, Corn: 0
corn; [7]
  Plant response rating, Corn: 0
